Reference: patent publication US11505531B2 (SOUTHERN RESEARCH INSTITUTE, priority 2018, dated 2022)

Tested on: TGF-β mediated by TSP-1
Assay: Cell-based assay of inhibition of TGF-β mediated by TSP-1
Parameters: species or system human
Settings: not given
Description: To specifically assess activity of compounds in liver cell specific assays, two different assays were used. In the first, human hepatic stellate cells were incubated overnight in low serum media to condition the media with secreted latent […]. Purified TSP1 either preincubated with compounds or not will be added to cultures and then conditioned media harvested to assess TGF-β biological activity using the R&D Systems ELISA as above. Hepatic stellate cells will be purchased from commercial sources. Although hepatic stellate cells are the primary drivers of liver fibrosis, conditions which drive liver fibrosis can induce hepatocyte TSP-1 expression which can then have paracrine effects on controlling TGF-β activation in hepatic stellate cells. Furthermore, TGF-β can negatively impact hepatocyte regeneration following injury. Therefore, the ability of compounds to block TSP-1 activation of latent TGF-β will also be assessed in cultured primary human hepatocytes following the protocol described for the hepatic stellate cells. Similar approaches have successfully been used to screen compounds which inhibit human myeloma cell derived latent TGF-β activation by TSP-1 (Lu et al. (2016) Am J Pathol 186:678-690).

Molecule	Inhibition of TGF-β mediated by TSP-1 cell-based assay (result in words)
CC1(C)NC(=O)[C@@H](CCCCN)NC1=O [Compound 10, (R)-6-(4-aminobutyl)-3,3-dimethylpiperazine-2,5-dione]	Inactive

Same assay, conditions: Homo sapiens; At 10 nM; read-out: Inhibition of TGF-β mediated by TSP-1 cell-based assay at [Inhibitor]

Molecule	inhibition at 0.01 µM
NCCCC[C@@H]1NC(=O)C2(CCCC2)NC1=O [Compound 7]	72%
NCCC[C@@H]1NC(=O)C2(CCCC2)NC1=O [Compound 14, (S)-8-(3-aminopropyl)-6,9-diazaspiro[4.5]decane-7,10-dione]	54%
CC1(C)NC(=O)[C@H](Cc2ccc(N)cc2)NC1=O [Compound 4, (S)-6-(4-aminobenzyl)-3,3-dimethylpiperazine-2,5-dione]	80%
CC1(C)NC(=O)[C@H](CCCCN)NC1=O [Compound 2, (S)-6-(4-aminobutyl)-3,3-dimethylpiperazine-2,5-dione]	38%
NCCCC[C@@H]1NC(=O)CNC1=O [Compound 1, (S)-3-(4-aminobutyl)piperazine-2,5-dione]	38%
CC1(C)NC(=O)[C@H](Cc2cccc(CN)c2)NC1=O [Compound 6]	75%
Nc1ccc(C[C@@H]2NC(=O)CNC2=O)cc1 [Compound 3, (S)-3-(4-aminobenzyl)piperazine-2,5-dione]	13%
Nc1ccc(C[C@@H]2NC(=O)C3(CCCCC3)NC2=O)cc1 [Compound 15, (S)-3-(4-aminobenzyl)-1,4-diazaspiro[5.5]undecane-2,5-dione]	49%
Nc1ccc(C[C@@H]2NC(=O)C3(CCCC3)NC2=O)cc1 [Compound 9, (S)-8-(4-aminobenzyl)-6,9-diazaspiro[4.5]decane-7,10-dione]	40%
CC1(C)NC(=O)[C@H](Cc2ccc(C(N)=O)cc2)NC1=O [Compound 11, (S)-4-((5,5-dimethyl-3,6-dioxopiperazin-2-yl)methyl)benzamide]	25%
NC(=O)c1ccc(C[C@@H]2NC(=O)C3(CCCC3)NC2=O)cc1 [Compound 13, (S)-4-((7,10-dioxo-6,9-diazaspiro[4.5]decan-8-yl)methyl)benzamide]	8%
Nc1ccc(C[C@@H]2NC(=O)C3(CCC3)NC2=O)cc1 [Compound 8, (S)-7-(4-aminobenzyl)-5,8-diazaspiro[3.5]nonane-6,9-dione]	62%
NC(=O)c1ccc(C[C@@H]2NC(=O)CNC2=O)cc1 [Compound 12, (S)-4-((3,6-dioxopiperazin-2-yl)methyl)benzamide]	40%

Same assay, conditions: Homo sapiens; At 100 nM; read-out: Inhibition of TGF-β mediated by TSP-1 cell-based assay at [Inhibitor]

Molecule	inhibition at 0.1 µM
NCCCC[C@@H]1NC(=O)C2(CCCC2)NC1=O [Compound 7]	89%
NCCC[C@@H]1NC(=O)C2(CCCC2)NC1=O [Compound 14, (S)-8-(3-aminopropyl)-6,9-diazaspiro[4.5]decane-7,10-dione]	85%
CC1(C)NC(=O)[C@H](Cc2ccc(N)cc2)NC1=O [Compound 4, (S)-6-(4-aminobenzyl)-3,3-dimethylpiperazine-2,5-dione]	78%
CC1(C)NC(=O)[C@H](CCCCN)NC1=O [Compound 2, (S)-6-(4-aminobutyl)-3,3-dimethylpiperazine-2,5-dione]	71%
NCCCC[C@@H]1NC(=O)CNC1=O [Compound 1, (S)-3-(4-aminobutyl)piperazine-2,5-dione]	59%
CC1(C)NC(=O)[C@H](Cc2cccc(CN)c2)NC1=O [Compound 6]	96%
Nc1ccc(C[C@@H]2NC(=O)CNC2=O)cc1 [Compound 3, (S)-3-(4-aminobenzyl)piperazine-2,5-dione]	32%
Nc1ccc(C[C@@H]2NC(=O)C3(CCCCC3)NC2=O)cc1 [Compound 15, (S)-3-(4-aminobenzyl)-1,4-diazaspiro[5.5]undecane-2,5-dione]	85%
Nc1ccc(C[C@@H]2NC(=O)C3(CCCC3)NC2=O)cc1 [Compound 9, (S)-8-(4-aminobenzyl)-6,9-diazaspiro[4.5]decane-7,10-dione]	92%
CC1(C)NC(=O)[C@H](Cc2ccc(C(N)=O)cc2)NC1=O [Compound 11, (S)-4-((5,5-dimethyl-3,6-dioxopiperazin-2-yl)methyl)benzamide]	39%
NC(=O)c1ccc(C[C@@H]2NC(=O)C3(CCCC3)NC2=O)cc1 [Compound 13, (S)-4-((7,10-dioxo-6,9-diazaspiro[4.5]decan-8-yl)methyl)benzamide]	24.6%
Nc1ccc(C[C@@H]2NC(=O)C3(CCC3)NC2=O)cc1 [Compound 8, (S)-7-(4-aminobenzyl)-5,8-diazaspiro[3.5]nonane-6,9-dione]	89%
NC(=O)c1ccc(C[C@@H]2NC(=O)CNC2=O)cc1 [Compound 12, (S)-4-((3,6-dioxopiperazin-2-yl)methyl)benzamide]	65.6%

Same assay, conditions: Homo sapiens; At 1 μM; read-out: Inhibition of TGF-β mediated by TSP-1 cell-based assay at [Inhibitor]

Molecule	inhibition at 1 µM
NCCCC[C@@H]1NC(=O)C2(CCCC2)NC1=O [Compound 7]	92%
NCCC[C@@H]1NC(=O)C2(CCCC2)NC1=O [Compound 14, (S)-8-(3-aminopropyl)-6,9-diazaspiro[4.5]decane-7,10-dione]	90%
CC1(C)NC(=O)[C@H](Cc2ccc(N)cc2)NC1=O [Compound 4, (S)-6-(4-aminobenzyl)-3,3-dimethylpiperazine-2,5-dione]	83%
CC1(C)NC(=O)[C@H](CCCCN)NC1=O [Compound 2, (S)-6-(4-aminobutyl)-3,3-dimethylpiperazine-2,5-dione]	76%
NCCCC[C@@H]1NC(=O)CNC1=O [Compound 1, (S)-3-(4-aminobutyl)piperazine-2,5-dione]	74.5%
CC1(C)NC(=O)[C@H](Cc2cccc(CN)c2)NC1=O [Compound 6]	97%
Nc1ccc(C[C@@H]2NC(=O)CNC2=O)cc1 [Compound 3, (S)-3-(4-aminobenzyl)piperazine-2,5-dione]	75%
Nc1ccc(C[C@@H]2NC(=O)C3(CCCCC3)NC2=O)cc1 [Compound 15, (S)-3-(4-aminobenzyl)-1,4-diazaspiro[5.5]undecane-2,5-dione]	94%
Nc1ccc(C[C@@H]2NC(=O)C3(CCCC3)NC2=O)cc1 [Compound 9, (S)-8-(4-aminobenzyl)-6,9-diazaspiro[4.5]decane-7,10-dione]	> 100%
CC1(C)NC(=O)[C@H](Cc2ccc(C(N)=O)cc2)NC1=O [Compound 11, (S)-4-((5,5-dimethyl-3,6-dioxopiperazin-2-yl)methyl)benzamide]	40%
NC(=O)c1ccc(C[C@@H]2NC(=O)C3(CCCC3)NC2=O)cc1 [Compound 13, (S)-4-((7,10-dioxo-6,9-diazaspiro[4.5]decan-8-yl)methyl)benzamide]	19.6%
Nc1ccc(C[C@@H]2NC(=O)C3(CCC3)NC2=O)cc1 [Compound 8, (S)-7-(4-aminobenzyl)-5,8-diazaspiro[3.5]nonane-6,9-dione]	92%
NC(=O)c1ccc(C[C@@H]2NC(=O)CNC2=O)cc1 [Compound 12, (S)-4-((3,6-dioxopiperazin-2-yl)methyl)benzamide]	68%

Same assay, conditions: Homo sapiens; assay not stated; given only for compounds tested in the cell-based assay

Molecule	IC50
NCCCC[C@@H]1NC(=O)C2(CCCC2)NC1=O [Compound 7]	0.85 nM
CC1(C)NC(=O)[C@H](Cc2ccc(N)cc2)NC1=O [Compound 4, (S)-6-(4-aminobenzyl)-3,3-dimethylpiperazine-2,5-dione]	1 nM
CC1(C)NC(=O)[C@H](Cc2cccc(CN)c2)NC1=O [Compound 6]	1 nM
Nc1ccc(C[C@@H]2NC(=O)C3(CCCC3)NC2=O)cc1 [Compound 9, (S)-8-(4-aminobenzyl)-6,9-diazaspiro[4.5]decane-7,10-dione]	11 nM
Nc1ccc(C[C@@H]2NC(=O)C3(CCC3)NC2=O)cc1 [Compound 8, (S)-7-(4-aminobenzyl)-5,8-diazaspiro[3.5]nonane-6,9-dione]	4 nM

Tested on: not given
Assay: not given
Settings: 30 mg/kg i.p., 3 times weekly, 15 weeks; cited from earlier work

Molecule	necropsy findings after chronic treatment
LSKL	no inflammation, no tumors in all major organs, and no impairment of wound healing

Tested on: CAG-heparanase MM cells
Assay: PAI-1 promoter luciferase reporter assay of conditioned media of TSP1-treated CAG-heparanase MM cells
Type: cell-based, human
Settings: cells treated with 67 nM TSP1
Description: Referring to FIG. 4B, CAG-heparanase MM cells were treated with 67 nM TSP1 and conditioned media were assessed for TGF-β activity using PAI-1 promoter luciferase reporter assay. There is ˜[…] TGF-β in the added TSP1 and LSKL blocks 80% of the CAG-heparanase MM cell generated TGF-β activity.

Molecule	block of CAG-heparanase MM cell generated TGF-β activity
LSKL	80%

Biological target: T1, TGF-β mediated by TSP-1 (purified human platelet TSP-1 + recombinant latent TGF-β1) (Homo sapiens, UniProt P07996)
T1 construct: purified human platelet TSP-1 was incubated with compounds; tissue R&D Systems (latent TGF-β1 only); host or cells: human platelets (TSP-1)
Assay: In vitro ELISA assay: TSP-1 incubated with compound, then with recombinant latent TGF-β1; active TGF-β detected
Type: biochemical
Settings: At 10 pM; read-out: Inhibition of TGF-β mediated by TSP-1 in vitro Elisa assay at [Inhibitor]
Description: For initial screening, an ELISA-based screening assay was used in which purified human platelet TSP-1 was incubated with compounds and then incubated with recombinant latent TGF-β1 (purchased from R&D Systems). Activity is measured in a commercially available ELISA which detects only active TGF-β (R &D Systems). Activity in the presence of compounds is compared to activity in TSP-1+latent TGF-β samples without inhibitory compounds (Lu et al. (2016) Am J Pathol 186:678-690).

T1 sequence (P07996 19-1170): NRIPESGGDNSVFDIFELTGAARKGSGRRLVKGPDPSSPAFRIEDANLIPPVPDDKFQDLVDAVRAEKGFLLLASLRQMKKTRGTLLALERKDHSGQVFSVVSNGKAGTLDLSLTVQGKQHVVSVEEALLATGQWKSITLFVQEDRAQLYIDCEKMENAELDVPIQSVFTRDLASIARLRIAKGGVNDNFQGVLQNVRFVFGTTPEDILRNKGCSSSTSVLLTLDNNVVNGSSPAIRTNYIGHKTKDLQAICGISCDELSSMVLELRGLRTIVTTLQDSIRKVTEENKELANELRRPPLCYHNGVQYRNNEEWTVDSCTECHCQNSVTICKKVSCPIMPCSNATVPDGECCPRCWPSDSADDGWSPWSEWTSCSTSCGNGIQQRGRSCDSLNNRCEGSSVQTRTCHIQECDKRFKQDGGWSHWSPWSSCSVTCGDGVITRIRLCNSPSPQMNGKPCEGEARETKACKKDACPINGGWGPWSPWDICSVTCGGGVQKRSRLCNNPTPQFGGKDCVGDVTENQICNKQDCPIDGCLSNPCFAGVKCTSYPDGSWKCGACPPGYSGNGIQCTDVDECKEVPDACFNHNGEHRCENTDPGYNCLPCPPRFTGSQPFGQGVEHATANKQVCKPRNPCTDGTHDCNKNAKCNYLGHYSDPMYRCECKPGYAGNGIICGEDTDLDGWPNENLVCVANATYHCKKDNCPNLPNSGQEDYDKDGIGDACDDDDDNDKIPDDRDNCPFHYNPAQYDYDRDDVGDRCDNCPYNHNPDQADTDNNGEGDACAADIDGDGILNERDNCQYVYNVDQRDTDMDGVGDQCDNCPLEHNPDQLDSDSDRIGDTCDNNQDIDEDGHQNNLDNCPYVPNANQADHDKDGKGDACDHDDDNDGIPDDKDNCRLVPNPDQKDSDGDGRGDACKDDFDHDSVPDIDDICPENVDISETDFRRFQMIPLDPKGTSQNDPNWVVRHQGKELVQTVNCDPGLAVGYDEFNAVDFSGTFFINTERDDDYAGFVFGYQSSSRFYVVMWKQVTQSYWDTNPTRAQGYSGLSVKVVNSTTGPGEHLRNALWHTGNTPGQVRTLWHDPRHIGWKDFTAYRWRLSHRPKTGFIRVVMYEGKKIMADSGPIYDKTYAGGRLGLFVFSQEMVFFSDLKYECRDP

Molecule	inhibition at 10 pM
CC1(C)NC(=O)[C@H](CCCCN)NC1=O [Compound 2, (S)-6-(4-aminobutyl)-3,3-dimethylpiperazine-2,5-dione]	73%
NCCCC[C@@H]1NC(=O)CNC1=O [Compound 1, (S)-3-(4-aminobutyl)piperazine-2,5-dione]	-67%
Nc1ccc(C[C@@H]2NC(=O)CNC2=O)cc1 [Compound 3, (S)-3-(4-aminobenzyl)piperazine-2,5-dione]	66%

Same assay, conditions: At 50 pM; read-out: Inhibition of TGF-β mediated by TSP-1 in vitro Elisa assay at [Inhibitor]

Molecule	inhibition at 50 pM
CC1(C)NC(=O)[C@H](CCCCN)NC1=O [Compound 2, (S)-6-(4-aminobutyl)-3,3-dimethylpiperazine-2,5-dione]	91%
NCCCC[C@@H]1NC(=O)CNC1=O [Compound 1, (S)-3-(4-aminobutyl)piperazine-2,5-dione]	-4%
Nc1ccc(C[C@@H]2NC(=O)CNC2=O)cc1 [Compound 3, (S)-3-(4-aminobenzyl)piperazine-2,5-dione]	68%

Same assay, conditions: At 100 pM; read-out: Inhibition of TGF-β mediated by TSP-1 in vitro Elisa assay at [Inhibitor]

Molecule	inhibition at 0.0001 µM
CC1(C)NC(=O)[C@H](CCCCN)NC1=O [Compound 2, (S)-6-(4-aminobutyl)-3,3-dimethylpiperazine-2,5-dione]	89%
NCCCC[C@@H]1NC(=O)CNC1=O [Compound 1, (S)-3-(4-aminobutyl)piperazine-2,5-dione]	37%
Nc1ccc(C[C@@H]2NC(=O)CNC2=O)cc1 [Compound 3, (S)-3-(4-aminobenzyl)piperazine-2,5-dione]	90%

Tested on: not given
Assay: not given
Settings: cited from earlier work

Molecule	plasma stability half-life
LSKL	2.1 min

Tested on: CAG human myeloma cells
Assay: SCID-tibia MM model, tumor burden (bioluminescence, serum Ig kappa)
Type: in vivo, SCID mice
Settings: LSKL 30 mg/kg/day by subcutaneous osmotic pump, 2 and 4 weeks
Description: Referring to FIG. 2A and FIG. 2B, CAG human myeloma cells were injected into the intratibial marrow space of SCID mice. After 2 weeks, tumors were imaged by bioluminescence and serum 1 g kappa levels measured. Mice were randomized to equalize 1 g kappa levels. Osmotic pumps were implanted subcutaneously to deliver saline or LSKL peptide (30 mg/kg/day) (n=10/group). Tumors were imaged and serum 1 g kappa levels measured at 2 and 4 weeks of treatment. Data are means±SEM. Bioluminescence; *p=0.019 ANOVA, serum kappa; p=0.037, t-test.

Molecule	MM tumor burden
LSKL	Reduces MM Tumor Burden

Tested on: MSCs
Assay: Osteoblast differentiation by MSCs under osteogenic conditions (alkaline phosphatase staining, Runx2 RT-PCR)
Type: cell-based
Settings: osteogenic media, TSP1 10 nM + LSKL 25 μM, 20 days
Description: Referring to FIG. 1A, MSCs were grown to confluence in basal (control) media. Cells were treated with control growth media, osteogenic media, or osteogenic media with TGF-β (5 ng/mL) or stripped TSP1 (10 nM), TSP1+LSKL (25 μM), TSP1+SLLK (25 μM control peptide), or TSP1+anti-TGF-β (5 μg/mL). Cultures were fed daily for 20 days. Alkaline phosphatase staining is representative of triplicate wells.
Referring to FIG. 1B, cells were treated every 2 days for 20 days with MSC growth media (control) or osteogenic media with TGF-β (5 ng/mL) or TSP1 (10 nM)±daily treatment with 25 μM LSKL or SLLK peptides. RNA isolated from cells was used for RT-PCR analysis of Runx2 expression. Samples were run in duplicate and each experimental treatment in triplicate.

Molecule	osteoblast differentiation by MSCs
LSKL	Increases Osteoblast Differentiation

Tested on: phospho-Smad 2
Assay: Phospho-Smad 2 staining of tibiae from mice injected with CAG MM cells
Type: in vivo
Settings: 4 weeks of treatment
Description: Referring to FIG. 3A-C, at 4 weeks of treatment, tibiae from mice injected with CAG MM cells were fixed and stained with antibody to phosphor-Smad 2. Left panels are from 2 different saline treated mice and the right panels are from LSKL-treated mice. Pixels of brown staining were quantified in 4 fields per animal. 5-6 animals per group were analyzed. Data are the percent area exceeding the threshold for positive staining (FIG. 3A). […] P=0.004.

Molecule	phospho-Smad 2 in the bone marrow
LSKL	Reduces Phospho-Smad 2

Tested on: CAG MM cells
Assay: Phospho-Smad 2 immunoblot in TSP1-treated CAG MM cells
Type: cell-based, human
Settings: 30 nM TSP1 for 6 hrs ± LSKL
Description: Referring to FIG. 4A, CAG MM cells were incubated with 30 nM TSP1 for 6 hrs±LSKL or SLLK. Cell lysates were immunoblotted for phosphor-Smad 2. Blots were stripped and reprobed for total Smad 2/3 and GAPDH. Results are normalized to GAPDH (untreated controls=1). LSKL reduces TSP1 induced treatment or luciferase activity in cells treated with active TGF-β (not shown).

Molecule	TGF-β activity (phospho-Smad 2) in CAG MM cells
LSKL	Reduces TGF-B Activity
